{"source": "patent US9067894B1", "about": "“Compound, composition, and method of activating GIRK potassium channel and use of same for treating conditions of interest” (Vanderbilt University, priority 2013, dated 2015)", "key": {"GIRK1/2": {"biological_target": "T1, GIRK1/2 (Homo sapiens, UniProt P48051+P48549)", "T1 sequence (P48549 1-501)": "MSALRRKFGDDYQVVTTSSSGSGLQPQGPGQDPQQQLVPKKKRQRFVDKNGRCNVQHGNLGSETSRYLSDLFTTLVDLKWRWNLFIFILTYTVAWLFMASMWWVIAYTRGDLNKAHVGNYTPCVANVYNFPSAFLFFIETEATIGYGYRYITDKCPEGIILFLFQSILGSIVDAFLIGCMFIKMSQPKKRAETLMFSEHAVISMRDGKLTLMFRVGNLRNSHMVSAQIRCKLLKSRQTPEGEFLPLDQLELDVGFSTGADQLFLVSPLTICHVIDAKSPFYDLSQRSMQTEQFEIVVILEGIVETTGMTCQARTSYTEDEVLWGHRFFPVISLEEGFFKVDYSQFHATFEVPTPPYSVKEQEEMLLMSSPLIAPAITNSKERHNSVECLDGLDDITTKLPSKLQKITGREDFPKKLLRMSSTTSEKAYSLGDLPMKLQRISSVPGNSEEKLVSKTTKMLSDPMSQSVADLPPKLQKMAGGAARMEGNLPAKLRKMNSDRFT", "T1 sequence (P48051 1-423)": "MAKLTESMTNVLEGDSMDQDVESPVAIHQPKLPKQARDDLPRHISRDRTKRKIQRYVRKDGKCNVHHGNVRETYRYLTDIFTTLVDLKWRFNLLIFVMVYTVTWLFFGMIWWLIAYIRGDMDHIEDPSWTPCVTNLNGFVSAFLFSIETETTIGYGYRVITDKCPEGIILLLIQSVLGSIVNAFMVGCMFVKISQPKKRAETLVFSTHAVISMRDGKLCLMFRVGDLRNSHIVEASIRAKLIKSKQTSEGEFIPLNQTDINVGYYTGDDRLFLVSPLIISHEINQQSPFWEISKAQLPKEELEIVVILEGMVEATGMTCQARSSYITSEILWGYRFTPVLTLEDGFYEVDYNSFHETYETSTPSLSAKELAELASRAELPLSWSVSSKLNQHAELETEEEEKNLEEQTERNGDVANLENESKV", "test": "Thallium flux, pertussis toxin-treated cells co-expressing mGlu8 and GIRK1/2", "type": "cell-based", "parameters": "host or cells: HEK-293", "settings": "600 ng/ml pertussis toxin; VU0456810 10 μM, glutamate 100 μM", "excerpt": "(§1) Cell Line Construction and Cell Culture. HEK-293 cells co-expressing human GIRK1/2 and rat mGlu8 were generated as previously described (Niswender et al., 2008). A HEK-293 cell line (ATCC, Manassas, Va.) expressing human GIRK1 and human GIRK2 was constructed by transfecting HEK-293 cells with GIRK1 and GIRK2 (Origene, Rockville, Md.) cloned into the pBudCE4.1 vector (Life Technologies, Carlsbad, Calif.) using FuGene 6 (Promega, Madison, Wis.) transfection reagent. Unless otherwise noted, other ion channel-expressing cells were prepared by transfecting HEK-293 cells with individual or combinations of subunits: GIRK1, pCMV6-A-BSD; GIRK2, pCMV6-A-puro; GIRK3, pCMV6-A-hygro; GIRK4, pCMV6-A-AC; Kv7.4, pIRESneo3. The Kir2.1 and hERG-expressing cell lines were made by transfecting T-REx-293 cells (Life Technologies, Carlsbad, Calif.) with Kir2.1 and Kv11.1, respectively, cloned into pcDNA5TO. Monoclonal cell lines were produced by limiting-dilution cloning of antibiotic-resistant cells and functional selection using the thallium flux assay described below. Unless otherwise noted, cells were maintained in Minimal Essential Medium, Alpha Medium (Mediatech, Manassas, Va.) supplemented with 10% fetal bovine serum (Sigma-Aldrich, Saint Louis, Mo.) and GlutaGro (Mediatech, Manassas, Va.), referred to henceforth as cell culture medium. […]"}, "Kir2.1": {"biological_target": "T2, Kir2.1 (Homo sapiens, UniProt P63252)", "T2 construct": "expressed in transfected cells; host or cells: T-REx-293", "T2 sequence (P63252 whole entry)": "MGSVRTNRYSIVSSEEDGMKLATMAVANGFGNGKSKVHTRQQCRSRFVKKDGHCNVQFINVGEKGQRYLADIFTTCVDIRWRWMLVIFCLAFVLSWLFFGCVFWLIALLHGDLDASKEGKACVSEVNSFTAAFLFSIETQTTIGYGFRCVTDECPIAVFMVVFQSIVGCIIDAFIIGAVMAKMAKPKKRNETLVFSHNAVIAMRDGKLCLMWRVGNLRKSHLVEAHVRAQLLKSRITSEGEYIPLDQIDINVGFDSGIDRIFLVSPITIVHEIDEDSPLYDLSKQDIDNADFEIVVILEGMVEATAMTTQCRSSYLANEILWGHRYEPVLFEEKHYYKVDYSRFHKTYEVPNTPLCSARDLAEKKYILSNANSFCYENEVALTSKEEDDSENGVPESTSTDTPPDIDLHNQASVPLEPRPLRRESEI", "test": "Thallium flux assay, Kir2.1-expressing cells", "type": "cell-based", "excerpt": "as §1"}, "Thyroid hormone": {"test_system": "Thyroid hormone", "test": "Radioligand displacement (Ricerca)", "type": "binding, human", "settings": "10 μM"}}, "data": [{"smiles": "Cc1cc(NC(=O)Nc2ccc(F)c(F)c2)n(-c2ccccc2)n1", "note": "[VU0456810, 1-(3,4-difluorophenyl)-3-(3-methyl-1-phenyl-1H-pyrazol-5-yl)urea]", "values": [{"measurement": "effect of pertussis toxin treatment on evoked thallium flux", "setting": "GIRK1/2", "result": "unable to block"}, {"measurement": "Potency", "setting": "Kir2.1", "result": "Inactive"}, {"measurement": "% Inhibition", "setting": "Thyroid hormone", "result": 8, "unit": "%"}]}]}
